Consider 1 molecule from patent US20030229114A1, “Pyrroloquinoline quinone drugs as a neuroprotectant and methods of use thereof” (priority 2002, published 2003).

“And” between values parts separate entries of the source, which are not always exact repeats. Equal entries are not always repeated. “Also recorded” adds a separate entry of the source. Where two headings read alike, the source gives them in different places.

Assay [1] relates to cultured rat forebrain neurons. The assay is described as follows: Survival assay of neuronal cultures (Alamar Blue reduction, 24 hr). The conditions noted are these: for EC50: Rattus norvegicus, Neuron, read-out: EC50 of the protective effect against SIN-1 toxicity, SIN-1 1 mM. Here is the method:
Neuronal cultures were prepared from embryonic day 16 Sprague Dawley rat fetuses using methods similar to those previously described (Dichter, 1978) but modified to produce cultures that contained <1% astrocytes (Rosenberg and Aizenman, 1989; Rosenberg, 1991; Rosenberg et al., 1992; Wang et al., 1998). Cultures were initially plated on poly-L-lysine-coated 24-well plastic plates (Costar, Cambridge, Mass.) using an 80:10:10 (v/v) mixture ofDMEM (Life Technologies 11960-010), Ham's F-12 (Sigma, N-4888), heat-inactivated iron-supplemented calf serum (Hyclone A2151), containing 2 mM glutamine, 25 mM HEPES, 24 U/ml penicillin, and 24 μg/ml streptomycin and maintained in a 5% CO2 (balance air) incubator at 36° C. Cell proliferation was inhibited by exposure to 5 μM cytosine arabinoside at 24 hr in vitro for 72 hr. On the fourth day of culture, the medium was completely removed and replaced with 90% MEM, 10% Nuserum IV (Collaborative Research), 2 mM glutamine, 5 mM HEPES, containing 50 units/ml superoxide dismutase (Boehringer Mannheim, Indianapolis, Ind.), 20 units/ml catalase (Sigma CV-40), total glucose 11 mM, and total sodium bicarbonate 9.3 mM, plus 2% B27 supplement (Life Technologies 17504-036). Medium was not subsequently changed. To prevent evaporation of water, culture dishes were kept in wet dishes containing filter paper that was always kept wet.
In all experiments, 24-well plates were first washed three times in Hank's balanced salt solution (HBSS) containing 0.1% bovine serum albumin (BSA), and then they were placed in Earle's balanced salt solution (EBSS, which is composed of 116 mM NaCl, 5.4 mM KCl, 1.8 mM CaCl2, 0.8 mM MgSO4, 26 mM NaHCO3, 1 mM NaH2PO4 and 5.5 mM D-glucose). Experiments were carried out exclusively in EBSS. […] PQQ was directly dissolved in EBSS.
Survival of cells was determined after 24 hr exposure to the test compounds by assessing the ability of cultures to reduce Alamar Blue (Trek Diagnostic Systems, Inc., Westlake, Ohio) as an index of viability (McGahon et al., 1995). Details of this procedure have been provided elsewhere (Back et al., 1998, 1999). In brief, the test medium was removed after 24 hr, and then replaced with EBSS plus a 1:100 dilution of Alamar Blue. After 2 hr exposure, the medium was diluted 50-fold with water, and the fluorescence intensity was determined in a Hitachi fluorescence spectrophotometer using an excitation wavelength of 530 nm and an emission wavelength of 590 nm. The photomultiplier voltage was set at 700 V. In some experiments, the cell viability determined by Alamar Blue was compared to that determined by the assay of lactate dehydrogenase (LDH) release (Koh and Choi, 1987).

In assay [2] the test system is cultured rat forebrain neurons. As to the kind of experiment: Assay of intracellular ATP in neuronal cultures (firefly luciferase). It is filed as cell-based. Here is the method:
Medium was not subsequently changed.
Experiments were carried out exclusively in EBSS. […] PQQ was directly dissolved in EBSS.
The Bioluminescent Somatic Cell Assay kit from Sigma (catalog No. FL-ASC) was used for assay of ATP as previously described (Rosenberg et al., 2000). At selected time points after addition of drug or vehicle, medium was removed, and then replaced with 200 μl of cell lysis agent. After brief agitation, the medium was transferred to microcentrifuge tubes that contained 200 μl of water. The tubes were placed on wet ice until assay. ATP assay mix was used at 25-fold dilution, and 100 μl of the extract was assayed.

A further assay has as its system BSA. The assay is described as follows: Western blot of BSA tyrosine nitration, cell-free (anti-nitrotyrosine antibody). In kind it is biochemical, bovine. The conditions noted are these: 1 hr. The method, then: BSA (0.5 mg/ml) in EBSS with or without PQQ was exposed to SIN-1 or peroxynitrite for 1 hr, and then 4× sample buffer (40% glycerol, 20% β-mercaptoethanol, 0.004% bromophenol blue, 6.4% SDS, 25% 1M Tris-HCl, pH 6.8) was added. After the samples were heated for 5 min, 2 μg protein per lane was subjected to SDS-PAGE analysis, followed by transfer to PVDF membrane (NEN Life Science, Boston, Mass.) and reacted with a mouse anti-nitrotyrosine monoclonal antibody (Upstate Biotechnology). Proteins were visualized with horseradish peroxidase-conjugated sheep anti-mouse immunoglobulin G (IgG) followed by detection with enhanced chemiluminescence.

Assay [3] is described as follows: Assay of H2O2 produced by the reaction of SIN-1 with SOD or PQQ. The conditions noted are these: data not shown. In kind it is biochemical. The method, then: The method described by Yakes and Van Houten (1997) was used, exploiting the oxidation of o-diansidine dihydrochloride (o-DD, Sigma D-3252) in the presence of horseradish peroxidase (Sigma P-8250). Briefly, SIN-1 (1 mM) was incubated with SOD (100 units/ml) or PQQ (100 μM) in the absence or presence of catalase (100 units/ml) in EBSS for various times. Then o-DD was added to a final concentration of 250 μM and 2.5 units/ml horseradish peroxidase were added. After 1 hr incubation at 37° C., the absorbance at 470 nm was measured. The concentration of H2O2 in samples was calculated based on a standard curve obtained by the reaction of various concentrations of H2O2 with o-DD and horseradish peroxidase.

A further assay concerns Oligodendrocytes. As to the kind of experiment: In vitro white matter injury assay: SIN-1 toxicity in oligodendrocytes. It is filed as cell-based. The conditions noted are these: PQQ 100 μM; SIN-1 0.25-2 mM, 2 hr; examined at 24 hr. Here is the method:
Oligodendrocytes were exposed to various concentrations of SIN-1 (0, 0.25, 0.5, 1 and 2 mM) in EBSS for 2 hr with or without PQQ (100 μM), then washed with HBSS containing 0.1% BSA for 2 times. Oligodendrocytes were then returned to the culture medium. The neurotoxicity was examined at 24 hr.
To illustrate the neuroprotective benefits of the invention, PQQ was used to show oligodendrocytes protection from cell toxicity in an in vitro white matter injury assay. Oligodendrocytes were exposed to various concentrations of SIN-1 (0, 0.25, 0.5, 1 and 2 mM) in EBSS for 2 hr with or without PQQ (100 μM), then washed with HBSS containing 0.1% BSA for 2 times. Oligodendrocytes were then returned to the culture medium. The neurotoxicity was examined at 24 hr.

For assay [4] the following is noted: ESR, in vitro; Urakami et al (1997); read-out: IC50 in scavenging superoxide; cited from earlier work.

For `O=C(O)c1cc(C(=O)O)c2c(n1)C(=O)C(=O)c1cc(C(=O)O)[nH]c1-2` [PQQ, Pyrroloquinoline quinone], the “Effect on neurotoxicity induced by NMDA plus DETA/NO” value in assay [1] (24 hr exposure, PQQ 100 μM) is listed as “fully blocked; also recorded: block”; in assay [1] (four hour exposure, PQQ 100 μM, NMDA 20 μM, DETA/NO 300 μM) it was “completely blocked; also recorded: blocks”. Moreover, the Neuronal survival in assay [1] (DEA/NO 1 mM in the presence of PQQ 100 μM) is recorded as 39.7±16.8 % of control; in assay [1] (DETA/NO 1 mM in the presence of PQQ 100 μM) it was 30.7±7.7 % of control; in assay [1] (DPT/NO 1 mM in the presence of PQQ 100 μM), 1.7±0.7 % of control. Moreover, the “Cell (neuronal) survival” value in assay [1] (ONOO− 100 μM in the presence of PQQ 100 μM) is 11±6% and 11±8%. Besides, in assay [1] (PQQ 100 μM, DEA/NO, DPT/NO, DETA/NO 1 mM), the “Effect on neurotoxicity caused by nitric oxide donors” value is recorded as “nor did it prevent cell death; also recorded: no protective effect”. The “Effect on neurotoxicity induced by ONOO− (peroxynitrite)” value in assay [1] (PQQ 100 μM, ONOO− 100 μM) is recorded as “potentiated; also recorded: significantly potentiates”. The “Effect on neurotoxicity induced by SIN-1” value in assay [1] (PQQ 100 μM, SIN-1 1 mM, no catalase) is “completely protected; also recorded: completely blocks”. The EC50 is 22.6 µM in assay [1] (representative experiment FIG. 2B) and 15 ± 8.4 µM in assay [1] (three experiments). Moreover, the “Effect on ATP depletion caused by nitric oxide donors” value in assay [2] (PQQ 100 μM, DEA/NO, DPT/NO 1 mM) is given as “did not block; also recorded: no effect”. In addition, the “Effect on ATP depletion caused by ONOO−” value in assay [2] (PQQ 100 μM, ONOO− 100 μM) is on record as “no effect”. In assay [2] (PQQ 100 μM, SIN-1 1 mM, 1 hr), the “Effect on ATP depletion induced by SIN-1” value is reported as “significantly blocked”. Also, the “Intracellular ATP” value in assay [2] (of control values, 1 hr ONOO− 100 μM with PQQ 100 μM) was 42±5.4% and 43.8±4.7%; in assay [2] (of control values, 1 hr SIN-1 1 mM with PQQ 100 μM), 84.4±13.9% and 93±12.6%; in assay [2] (one hour, DEA/NO 1 mM in the presence of PQQ 100 μM) it was 42.9±19.6%; in assay [2] (one hour, DPT/NO 1 mM in the presence of PQQ 100 μM) it was 72.7±7.9%. Besides, the “Effect on BSA nitration caused by ONOO−” value in the assay with BSA (ONOO− 100 μM, PQQ 100-500 μM) was “potentiated; also recorded: increased”. The “Effect on BSA nitration caused by SIN-1” value with BSA (SIN-1 1 mM, PQQ 100 μM, 300 μM or 500 μM) was “completely blocked”. Besides, in assay [3], the “Effect on oxidation of o-diansidine by H2O2” value was “did not reduce”. Further, the “Effect on oligodendrocyte death induced by SIN-1” value in the assay on Oligodendrocytes is “completely blocked”. Further, in assay [4], the IC50 is 38 nM.
